# Laboratory results taken from US20160002247A1, “8-SUBSTITUTED IMIDAZOPYRIMIDINONE DERIVATIVE HAVING AUTOTAXIN INHIBITORY ACTIVITY” (THE UNIVERSITY OF TOKYO, priority 2013, published 2016).
# pIC50: −log10 of the molar value.
# Molecular target: T1, Human autotaxin enzyme (Homo sapiens, UniProt Q13822)
# T1 construct: purchased R&D System
# Experiment: Evaluation of autotaxin inhibitor, Method B (Test Example 2): TG-mTMP fluorescence
# Format: biochemical
# Settings: Assay Method B (Test Example 2), human autotaxin; read-out: Inhibitory Activity (autotaxin enzyme inhibitory activity, IC50 class)
# How it was run: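 Human autotaxin in Tris-HCl pH 7.5 buffer with NaCl, MgCl2 and 0.1% BSA was reacted with TG-mTMP (0.5 μM solution added) and test compound for 2 hours at room temperature.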
row,Structure (SMILES),pIC50
1,CCCCCn1c(NCc2ccc3c(c2)OCO3)cc(=O)n2cc(-c3ccc(Cl)cc3)nc12 [Compound 249],7.00 to 8.00
2,CCCCCn1c(NCCOC)cc(=O)n2cc(-c3ccc(Cl)cc3)nc12 [Compound 250],7.00 to 8.00
3,CCCCCn1c(N(CCO)CCO)cc(=O)n2cc(-c3ccc(Cl)cc3)nc12 [Compound 253],7.00 to 8.00
4,CCCCCn1c(N2CCNCC2)cc(=O)n2cc(-c3ccc(Cl)cc3)nc12 [Compound 254],> 8.00
5,CCCCCn1c(N2C(C)CCC2C)cc(=O)n2cc(-c3ccc(Cl)cc3)nc12 (stereo not shown) [Compound 255],> 8.00
6,CCCCCn1c(N2CCC[C@H]2C)cc(=O)n2cc(-c3ccc(Cl)cc3)nc12 [Compound 256],> 8.00
7,CCCCCn1c(N2CCC(C)C2)cc(=O)n2cc(-c3ccc(Cl)cc3)nc12 (stereo not shown) [Compound 257],> 8.00
8,CCCCCn1c(N2CCC[C@@H]2C)cc(=O)n2cc(-c3ccc(Cl)cc3)nc12 [Compound 258],7.00 to 8.00
9,CCCCCn1c(N2CCCC2C)cc(=O)n2cc(-c3ccc(Cl)cc3)nc12 (stereo not shown) [Compound 259],7.00 to 8.00
10,CCCCCn1c(OC2CCCC2)cc(=O)n2cc(-c3ccc(Cl)cc3)nc12 [Compound 260],7.00 to 8.00
11,CCCCCn1c(OC(CC(C)C)CC(C)C)cc(=O)n2cc(-c3ccc(Cl)cc3)nc12 [Compound 262],6.00 to 7.00
12,CCCCCCCCOc1cc(=O)n2cc(-c3ccc(Cl)cc3)nc2n1CCCCC [Compound 263],6.00 to 7.00
13,CCCCCn1c(Oc2ccc(C(=O)CC)cc2)cc(=O)n2cc(-c3ccc(Cl)cc3)nc12 [Compound 266],6.00 to 7.00
14,CCCCCn1c(OC23CCC(CC2)CC3)cc(=O)n2cc(-c3ccc(Cl)cc3)nc12 [Compound 267],6.00 to 7.00
15,CCCCCn1c(Oc2nccs2)cc(=O)n2cc(-c3ccc(Cl)cc3)nc12 [Compound 268],> 8.00
16,CCCCCn1c(OCCOC)cc(=O)n2cc(-c3ccc(Cl)cc3)nc12 [Compound 269],> 8.00
17,CCCCCn1c(OC(C)(C)C)cc(=O)n2cc(-c3ccc(Cl)cc3)nc12 [Compound 270],6.00 to 7.00
18,C#CCCCCCCCCCOc1cc(=O)n2cc(-c3ccc(Cl)cc3)nc2n1CCCCC [Compound 271],< 6.00
19,CCCCCn1c(OC(C)C)cc(=O)n2cc(-c3ccc(Cl)cc3)nc12 [Compound 272],7.00 to 8.00
20,CCCCCn1c(N2CC(O)C2)cc(=O)n2cc(-c3ccc(Cl)cc3)nc12 [Compound 274],> 8.00
21,CCCCCn1c(N2CCCC2CCCC)cc(=O)n2cc(-c3ccc(Cl)cc3)nc12 (stereo not shown) [Compound 277],7.00 to 8.00
22,CCCCCn1c(N2CCCC2CCC2CCCCC2)cc(=O)n2cc(-c3ccc(Cl)cc3)nc12 (stereo not shown) [Compound 279],7.00 to 8.00
23,CCCCCn1c(N2CCCC2C(C)CCC)cc(=O)n2cc(-c3ccc(Cl)cc3)nc12 (stereo not shown) [Compound 280],7.00 to 8.00

row,Structure (SMILES),pIC50
1,O=C(O)C1CCN(c2cc(=O)n3cc(-c4ccc(Cl)cc4)nc3n2CCCC(F)(F)F)CC1 [Compound 283],> 8.00
2,N#Cc1ccc(-c2cn3c(=O)cc(N4CCC(C(=O)O)CC4)n(CCCC(F)(F)F)c3n2)cc1 [Compound 285],> 8.00
3,N#CCCCCn1c(NCc2ccc(C(=O)O)cc2)cc(=O)n2cc(-c3ccc(Cl)cc3)nc12 [Compound 286],> 8.00
4,O=C(O)c1ccc(CNc2cc(=O)n3cc(-c4ccc(Cl)cc4)nc3n2CCCC(F)(F)F)cc1 [Compound 287],> 8.00
5,N#Cc1ccc(-c2cn3c(=O)cc(NCc4ccc(C(=O)O)cc4)n(CCCC(F)(F)F)c3n2)cc1 [Compound 289],> 8.00
6,CCCCCn1c(CCC)cc(=O)n2cc(-c3ccc(Cl)cc3)nc12 [Compound 369],> 8.00
7,CCCCCn1c(-c2ccc(C(=O)NCCN3CCOCC3)cc2)cc(=O)n2cc(-c3ccc(Cl)cc3)nc12 [Compound 374],> 8.00
8,N#CCCCCn1c(-c2ccc(C(N)=O)cc2)cc(=O)n2cc(-c3ccc(Cl)cc3)nc12 [Compound 379],> 8.00
9,N#CCCCCn1c(-c2ccc(C(=O)NCCN3CCOCC3)cc2)cc(=O)n2cc(-c3ccc(Cl)cc3)nc12 [Compound 380],> 8.00
10,CN(C)CCNC(=O)c1ccc(-c2cc(=O)n3cc(-c4ccc(C#N)cc4)nc3n2CCCCC#N)cc1 [Compound 384],> 8.00
11,N#CCCCCn1c(-c2ccc(C(N)=O)cc2)cc(=O)n2cc(-c3ccc(C#N)cc3)nc12 [Compound 385],> 8.00
12,N#CCCCCn1c(-c2ccc(C(=O)NCCN3CCOCC3)cc2)cc(=O)n2cc(-c3ccc(C#N)cc3)nc12 [Compound 386],> 8.00
13,N#Cc1ccc(-c2cn3c(=O)cc(-c4ccc(C(=O)NCCN5CCOCC5)cc4)n(CCCC(F)(F)F)c3n2)cc1 [Compound 389],> 8.00
14,CCCCCn1c(-c2ccc(C(=O)N(C)C)cc2)cc(=O)n2cc(-c3ccc(Cl)cc3)nc12 [Compound 402],> 8.00
15,CCCCCn1c(-c2ccc(COC)cc2)cc(=O)n2cc(-c3ccc(Cl)cc3)nc12 [Compound 404],> 8.00
16,CCCCCn1c(C2=CCCCC2)cc(=O)n2cc(-c3ccc(Cl)cc3)nc12 [Compound 408],7.00 to 8.00
17,CCCCCn1c(-c2ccc(N3CCN(C)CC3)cc2)cc(=O)n2cc(-c3ccc(Cl)cc3)nc12 [Compound 416],> 8.00
18,CCCCCn1c(-c2cscn2)cc(=O)n2cc(-c3ccc(Cl)cc3)nc12 [Compound 418],7.00 to 8.00
19,CCCCCn1c(-c2ccc(NCC(C)C)nc2)cc(=O)n2cc(-c3ccc(Cl)cc3)nc12 [Compound 419],> 8.00
20,CCCCCn1c(-c2ccc(N(C)CC3CCCCO3)cc2)cc(=O)n2cc(-c3ccc(Cl)cc3)nc12 (stereo not shown) [Compound 420],7.00 to 8.00
21,CCCCCn1c(-c2ccc(N3CCOCC3)cc2)cc(=O)n2cc(-c3ccc(Cl)cc3)nc12 [Compound 421],7.00 to 8.00
22,CCCCCn1c(-c2cnc(N)cn2)cc(=O)n2cc(-c3ccc(Cl)cc3)nc12 [Compound 424],> 8.00

# Results, then the molecule that gave them:
row,pIC50,Structure (SMILES)
1,7.00 to 8.00,CCCCCn1c(NC)cc(=O)n2cc(-c3ccc(Cl)cc3)nc12 [Compound 248]
2,7.00 to 8.00,CCCCCn1c(NCCc2ccccc2)cc(=O)n2cc(-c3ccc(Cl)cc3)nc12 [Compound 251]
3,6.00 to 7.00,CCCCCn1c(OC(C)c2ccccc2)cc(=O)n2cc(-c3ccc(Cl)cc3)nc12 (stereo not shown) [Compound 261]
4,6.00 to 7.00,CCCCCn1c(Oc2cccnc2)cc(=O)n2cc(-c3ccc(Cl)cc3)nc12 [Compound 264]
5,< 6.00,CCCCCn1c(Oc2ccc(-c3ccccc3)cc2)cc(=O)n2cc(-c3ccc(Cl)cc3)nc12 [Compound 265]
6,6.00 to 7.00,CCCCCn1c(Oc2ccccn2)cc(=O)n2cc(-c3ccc(Cl)cc3)nc12 [Compound 273]
7,7.00 to 8.00,CCCCCn1c(N2CCCC2CCCc2ccccc2)cc(=O)n2cc(-c3ccc(Cl)cc3)nc12 (stereo not shown) [Compound 278]
8,7.00 to 8.00,CCCCCn1c(-c2ccccc2)cc(=O)n2cc(-c3ccc(Cl)cc3)nc12 [Compound 366]
9,> 8.00,CCCCCn1c(CO)cc(=O)n2cc(-c3ccc(Cl)cc3)nc12 [Compound 367]
10,> 8.00,CCCCCn1c(-c2ccc(F)cc2)cc(=O)n2cc(-c3ccc(Cl)cc3)nc12 [Compound 368]
11,> 8.00,CCCCCn1c(C=O)cc(=O)n2cc(-c3ccc(Cl)cc3)nc12 [Compound 370]
12,7.00 to 8.00,CCCCCn1c(COCc2ccccc2)cc(=O)n2cc(-c3ccc(Cl)cc3)nc12 [Compound 371]
13,7.00 to 8.00,CCCCCn1c(C(=O)O)cc(=O)n2cc(-c3ccc(Cl)cc3)nc12 [Compound 372]
14,6.00 to 7.00,CCCCCn1c(-c2cc3ccccc3o2)cc(=O)n2cc(-c3ccc(Cl)cc3)nc12 [Compound 392]
15,7.00 to 8.00,CCCCCn1c(-c2cc3ccccc3s2)cc(=O)n2cc(-c3ccc(Cl)cc3)nc12 [Compound 393]
16,7.00 to 8.00,CCCCCn1c(-c2ccccc2OC)cc(=O)n2cc(-c3ccc(Cl)cc3)nc12 [Compound 395]
17,7.00 to 8.00,CCCCCn1c(-c2cccc(OC)c2)cc(=O)n2cc(-c3ccc(Cl)cc3)nc12 [Compound 396]
18,> 8.00,CCCCCn1c(-c2ccc(OC)cc2)cc(=O)n2cc(-c3ccc(Cl)cc3)nc12 [Compound 397]
19,7.00 to 8.00,CCCCCn1c(/C=C/c2ccccc2)cc(=O)n2cc(-c3ccc(Cl)cc3)nc12 [Compound 398]
20,7.00 to 8.00,CCCCCn1c(-c2ccc(N(C)C)cc2)cc(=O)n2cc(-c3ccc(Cl)cc3)nc12 [Compound 399]
21,> 8.00,CCCCCn1c(-c2ccc(C#N)cc2)cc(=O)n2cc(-c3ccc(Cl)cc3)nc12 [Compound 400]
22,7.00 to 8.00,CCCCCn1c(-c2ccoc2)cc(=O)n2cc(-c3ccc(Cl)cc3)nc12 [Compound 403]
23,> 8.00,CCCCCn1c(-c2ccncc2)cc(=O)n2cc(-c3ccc(Cl)cc3)nc12 [Compound 410]
24,> 8.00,CCCCCn1c(-c2ccc(O)cc2)cc(=O)n2cc(-c3ccc(Cl)cc3)nc12 [Compound 411]
25,7.00 to 8.00,C/C=C/c1cc(=O)n2cc(-c3ccc(Cl)cc3)nc2n1CCCCC [Compound 414]
26,7.00 to 8.00,CCCCCn1c(/C=C/C(C)(C)C)cc(=O)n2cc(-c3ccc(Cl)cc3)nc12 [Compound 415]
27,7.00 to 8.00,CCCCCn1c(-c2cc[nH]n2)cc(=O)n2cc(-c3ccc(Cl)cc3)nc12 [Compound 417]
28,7.00 to 8.00,CCCCCn1c(-c2ccc(N)cc2)cc(=O)n2cc(-c3ccc(Cl)cc3)nc12 [Compound 422]
29,7.00 to 8.00,CCCCCn1c(/C=C/COC)cc(=O)n2cc(-c3ccc(Cl)cc3)nc12 [Compound 423]
30,> 8.00,CCCCCn1c(-n2ccccc2=O)cc(=O)n2cc(-c3ccc(Cl)cc3)nc12 [Compound 426]

# Same assay, conditions: Inhibitory Activity (autotaxin enzyme inhibitory activity, IC50 class), Assay Method B (Test Example 2), human autotaxin
row,Structure (SMILES),pIC50
1,CCCCCn1c(NC2C[C@@H]3CC[C@H]2C3)cc(=O)n2cc(-c3ccc(Cl)cc3)nc12 (stereo partly shown) [Compound 252],7.00 to 8.00
